This passage reports IC50 and Kd results from paper doi:10.1101/2025.06.22.660908v1 (biorxiv, 2025).

The target in one series is hERG (Homo sapiens, UniProt Q12809, species not given). The series can be described thus: hERG inhibition. The format is cell-based. For orientation: hERG is a cardiac potassium channel; its block is linked to QT prolongation.
A further series has as its target T1, Recombinant human TREM2 (Homo sapiens, UniProt Q9NZC2).
T1 sequence (Q9NZC2 19-174 limits assumed): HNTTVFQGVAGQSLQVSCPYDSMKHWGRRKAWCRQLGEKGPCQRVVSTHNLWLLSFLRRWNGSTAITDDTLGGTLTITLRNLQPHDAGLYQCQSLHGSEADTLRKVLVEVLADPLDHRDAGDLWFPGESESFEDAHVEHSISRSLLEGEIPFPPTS
The series can be described thus: microscale thermophoresis. In kind it is binding. For orientation: MST reads how a fluorescent partner responds to local heating, with and without ligand.

hERG, sequence (Q12809 whole entry): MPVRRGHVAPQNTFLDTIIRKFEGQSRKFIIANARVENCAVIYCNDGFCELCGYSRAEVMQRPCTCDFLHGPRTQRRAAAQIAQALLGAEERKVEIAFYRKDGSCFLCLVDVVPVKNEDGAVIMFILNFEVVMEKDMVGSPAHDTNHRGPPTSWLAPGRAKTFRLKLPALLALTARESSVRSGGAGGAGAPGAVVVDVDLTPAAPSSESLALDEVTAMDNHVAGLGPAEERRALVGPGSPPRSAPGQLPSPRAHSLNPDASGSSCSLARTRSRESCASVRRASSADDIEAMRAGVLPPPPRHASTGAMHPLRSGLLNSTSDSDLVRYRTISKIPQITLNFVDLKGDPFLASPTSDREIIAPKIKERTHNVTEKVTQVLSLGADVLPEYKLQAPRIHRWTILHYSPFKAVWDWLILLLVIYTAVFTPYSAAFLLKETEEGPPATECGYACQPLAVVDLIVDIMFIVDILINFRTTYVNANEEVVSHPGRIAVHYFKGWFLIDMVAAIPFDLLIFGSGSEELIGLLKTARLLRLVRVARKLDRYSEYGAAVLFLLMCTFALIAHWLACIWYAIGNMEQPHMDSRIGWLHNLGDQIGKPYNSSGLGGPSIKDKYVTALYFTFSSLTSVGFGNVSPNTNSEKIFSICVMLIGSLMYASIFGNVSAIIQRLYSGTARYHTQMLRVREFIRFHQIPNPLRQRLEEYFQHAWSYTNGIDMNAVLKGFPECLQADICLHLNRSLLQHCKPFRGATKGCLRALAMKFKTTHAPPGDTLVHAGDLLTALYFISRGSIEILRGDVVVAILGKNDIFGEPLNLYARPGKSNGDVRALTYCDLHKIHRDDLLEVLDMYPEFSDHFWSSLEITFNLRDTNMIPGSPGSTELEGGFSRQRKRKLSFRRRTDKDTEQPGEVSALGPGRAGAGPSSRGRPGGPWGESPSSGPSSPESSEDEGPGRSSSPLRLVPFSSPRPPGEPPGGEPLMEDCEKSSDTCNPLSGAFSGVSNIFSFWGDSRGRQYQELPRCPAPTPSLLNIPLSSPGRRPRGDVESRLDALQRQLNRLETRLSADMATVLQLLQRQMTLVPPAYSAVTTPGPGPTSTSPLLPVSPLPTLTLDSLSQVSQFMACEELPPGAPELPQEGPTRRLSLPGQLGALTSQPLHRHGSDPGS

For the compound `Cc1nc2cc(C3=CC(c4cnn(C)c4)OCC3)nc(-c3ccc(Cl)cc3F)c2nc1C` (stereo not drawn) [C1], at hERG, the IC50 (as a rule, the concentration that inhibits the measured activity by half) was more than 100 µM. Moreover, the Kd (commonly the free concentration of one partner at which half of the binding sites on the other are occupied at equilibrium, for simple one-to-one binding) at Recombinant human TREM2 turned out to be 71.4 ± 4.06 µM.

On to `Cc1nc2cc([C@H]3CCO[C@@H](c4cnn(C)c4)C3)nc(-c3ccc(Cl)cc3F)c2nc1C` [VG-3927], for which the IC50 against hERG is more than 100 µM.
